Source: the NIST ThermoML archive (doi:10.1021/je060271a)
Numbers after ± are expanded uncertainties.

Details: 343.14 K, Liquid, Vibrating tube method

CCCCCCC(=O)OCC(COC(=O)CCCCCC)(COC(=O)CCCCCC)COC(=O)CCCCCC [pentaerythritol tetraheptanoate]
Details | mass density [kg/m3]
18157 kPa | 953.7 ± 1.2
18178 kPa | 953.7 ± 1.2
18297 kPa | 953.7 ± 1.2
18319 kPa | 953.8 ± 1.2
18346 kPa | 953.8 ± 1.2
18368 kPa | 953.7 ± 1.2
18394 kPa | 953.9 ± 1.2
18417 kPa | 953.8 ± 1.2
18440 kPa | 953.8 ± 1.2
18467 kPa | 954 ± 1.2
18490 kPa | 953.8 ± 1.2
18513 kPa | 953.9 ± 1.2
18736 kPa | 954 ± 1.2
18759 kPa | 954.1 ± 1.2
18788 kPa | 954.2 ± 1.2
18811 kPa | 954.1 ± 1.2
18834 kPa | 954.2 ± 1.2
18863 kPa | 954.2 ± 1.2
18886 kPa | 954.2 ± 1.2
18911 kPa | 954.2 ± 1.2
18939 kPa | 954.2 ± 1.2
18963 kPa | 954.3 ± 1.2
18988 kPa | 954.2 ± 1.2
19016 kPa | 954.2 ± 1.2
19305 kPa | 954.6 ± 1.2
19330 kPa | 954.5 ± 1.2
19356 kPa | 954.5 ± 1.2
19386 kPa | 954.6 ± 1.2
19411 kPa | 954.6 ± 1.2
19743 kPa | 954.6 ± 1.2
19769 kPa | 954.7 ± 1.2
19796 kPa | 954.8 ± 1.2
19828 kPa | 954.7 ± 1.2
19854 kPa | 954.8 ± 1.2
19881 kPa | 954.8 ± 1.2
19913 kPa | 954.8 ± 1.2
19941 kPa | 954.8 ± 1.2
19968 kPa | 954.8 ± 1.2
19994 kPa | 954.9 ± 1.2
20028 kPa | 954.9 ± 1.2
20054 kPa | 955 ± 1.2
20087 kPa | 954.9 ± 1.2
20115 kPa | 955 ± 1.2
20142 kPa | 955 ± 1.2
20169 kPa | 955.2 ± 1.2
20203 kPa | 955.1 ± 1.2
20230 kPa | 955.1 ± 1.2
20258 kPa | 955.1 ± 1.2
20441 kPa | 955.3 ± 1.2
20475 kPa | 955.2 ± 1.2
20533 kPa | 955.4 ± 1.2
20567 kPa | 955.3 ± 1.2
20596 kPa | 955.3 ± 1.2
20625 kPa | 955.3 ± 1.2
20660 kPa | 955.3 ± 1.2
20722 kPa | 955.3 ± 1.2
20752 kPa | 955.5 ± 1.2
20817 kPa | 955.5 ± 1.2
20847 kPa | 955.4 ± 1.2
20877 kPa | 955.4 ± 1.2
20907 kPa | 955.5 ± 1.2
20942 kPa | 955.6 ± 1.2
20972 kPa | 955.5 ± 1.2
21003 kPa | 955.6 ± 1.2
21039 kPa | 955.6 ± 1.2
21133 kPa | 955.6 ± 1.2
21170 kPa | 955.7 ± 1.2
21200 kPa | 955.8 ± 1.2
21230 kPa | 955.8 ± 1.2
21267 kPa | 955.7 ± 1.2
21298 kPa | 955.9 ± 1.2
21330 kPa | 955.8 ± 1.2
21368 kPa | 955.8 ± 1.2
21399 kPa | 955.8 ± 1.2
21431 kPa | 955.9 ± 1.2
21462 kPa | 955.8 ± 1.2
21500 kPa | 956 ± 1.2
21533 kPa | 955.8 ± 1.2
21565 kPa | 956 ± 1.2
21597 kPa | 956 ± 1.2
21636 kPa | 955.9 ± 1.2
21669 kPa | 956 ± 1.2
21702 kPa | 956 ± 1.2
21740 kPa | 956 ± 1.2
21773 kPa | 956 ± 1.2
21806 kPa | 956.1 ± 1.2
21839 kPa | 956.1 ± 1.2
21878 kPa | 956.2 ± 1.2
21912 kPa | 956.2 ± 1.2
21946 kPa | 956.2 ± 1.2
21986 kPa | 956.1 ± 1.2
22020 kPa | 956.3 ± 1.2
22053 kPa | 956.2 ± 1.2
22086 kPa | 956.1 ± 1.2
22236 kPa | 956.4 ± 1.2
22270 kPa | 956.5 ± 1.2
22311 kPa | 956.5 ± 1.2
22345 kPa | 956.4 ± 1.2
22380 kPa | 956.5 ± 1.2
22421 kPa | 956.5 ± 1.2
22456 kPa | 956.5 ± 1.2
22491 kPa | 956.6 ± 1.2
22526 kPa | 956.5 ± 1.2
22569 kPa | 956.6 ± 1.2
22604 kPa | 956.6 ± 1.2
22640 kPa | 956.7 ± 1.2
22675 kPa | 956.7 ± 1.2
22776 kPa | 956.7 ± 1.2
22834 kPa | 956.7 ± 1.2
22870 kPa | 956.8 ± 1.2
22914 kPa | 956.8 ± 1.2
22950 kPa | 956.8 ± 1.2
